Measured values published in patent US20100221709A1, “METHODS FOR IDENTIFYING AGENTS THAT MODULATE APOPTOSIS IN CELLS THAT OVER-EXPRESS A BCL-2 FAMILY MEMBER PROTEIN” (priority 2005, published 2010).
Several values for one entry are separate records, joined by “and”; a condition that tells them apart may be missing. Equal values may be shown once.

Assays:
Bcl-xL(ΔC) F146L = target: T1, Bcl-xL(ΔC) F146L (Homo sapiens, UniProt Q07817, F146L); assay: Fluorescence anisotropy binding
T1 construct: inferred from pET22b(+) NdeI/XhoI cloning and nickel-NTA purification) (C); made in house; host or cells: Escherichia coli BL21(DE3) carrying pUB520
T1 sequence (Q07817 1-211 F146L limits assumed): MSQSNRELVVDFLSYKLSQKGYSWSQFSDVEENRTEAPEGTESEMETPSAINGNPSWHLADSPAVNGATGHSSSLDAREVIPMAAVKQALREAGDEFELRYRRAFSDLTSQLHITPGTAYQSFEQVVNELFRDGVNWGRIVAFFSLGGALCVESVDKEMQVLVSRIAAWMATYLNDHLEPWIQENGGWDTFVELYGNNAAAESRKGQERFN
Procedure: (§1) A pET22b (Novagen) vector coding for Bcl-xL(ΔC), a mutant Bcl-xL protein without the COOH terminal region, was transformed into Escherichia coli BL21(DE3) cells that carried pUB520 (encoding human Arg tRNA) and grown to an A600 of 0.6. Protein expression was induced with 0.1 mM isopropyl β-D-thiogalactoside at 30° C. The cells were resuspended 1:5 (w/v) in PEB buffer (50 mM Tris, pH 8.0, 200 mM NaCl, 0.2 mM phenylmethylsulfonyl fluoride, 5 mM β-mercaptoethanol, 5 mM imidazole, and 1% (v/v) glycerol), and stirred for 20 min at 4° C. Cells were disrupted by pulse sonication, and the soluble fraction was loaded onto a nickel-nitrilotriacetic acid column (Qiagen) equilibrated with PEB buffer. The column was washed with 40 mM imidazole, eluted with 200 mM imidazole, and the protein fractions were pooled and dialyzed (50 mM Tris, pH 8.0, 200 mM NaCl, 0.2 mM phenylmethylsulfonyl fluoride) at 4° C. overnight. The dialyzed protein was concentrated to 10 mg/ml and fractionated on a Superdex 75 gel filtration column (Amersham Biosciences). The fractions containing Bcl-xL(ΔC) protein were pooled, exchanged into low-salt buffer (same as for previous dialysis buffer, except 50 mM NaCl), and loaded onto a MonoQ anion exchange column (Amersham Biosciences). Protein was eluted from the column with increasing NaCl gradient, pooled and concentrated.
(§2) All reagents were prepared in 0.2 μm-filtered PBS with fresh 1 mM DTT. […] Slit widths were set at 10 nm for both excitation and emission.

Bcl-xL(ΔC) A142L = target: T2, Bcl-xL(ΔC) A142L (Homo sapiens, UniProt Q07817, A142L); assay: Fluorescence anisotropy binding
T2 construct: inferred from pET22b(+) NdeI/XhoI cloning and nickel-NTA purification) (C); made in house; host or cells: Escherichia coli BL21(DE3) carrying pUB520
T2 sequence (Q07817 1-211 A142L limits assumed): as the sequence (Q07817 1-211 F146L limits assumed) above, with A142L, L146F counted along it
Procedure: as §1, §2

Bcl-xL(ΔC) F97W = target: T3, Bcl-xL(ΔC) F97W (Homo sapiens, UniProt Q07817, F97W); assay: Fluorescence anisotropy binding
T3 construct: inferred from pET22b(+) NdeI/XhoI cloning and nickel-NTA purification) (C); made in house; host or cells: Escherichia coli BL21(DE3) carrying pUB520
T3 sequence (Q07817 1-211 F97W limits assumed): as the sequence (Q07817 1-211 F146L limits assumed) above, with F97W, L146F counted along it
Procedure: as §1, §2

Bcl-xL(ΔC) WT = target: T4, Bcl-xL(ΔC) WT (Homo sapiens, UniProt Q07817); assay: Pore assay, calcein release from large unilamellar vesicles; format: biochemical
T4 construct: inferred from pET22b(+) NdeI/XhoI cloning and nickel-NTA purification) (C); made in house; host or cells: Escherichia coli BL21(DE3) carrying pUB520
T4 sequence (Q07817 1-211 limits assumed, stated change not applied): as the sequence (Q07817 1-211 F146L limits assumed) above, with L146F counted along it
Procedure: Large unilamellar vesicles composed of 60% dioleoylphophatidylcholine and 40% dioleoylphosphatidylglycerol were prepared by the extrusion method of Mayer et al., supra. Lipid stocks, in chloroform, were mixed and dried under a stream of nitrogen gas. The lipid was resuspended by vortexing for 30 min in a solution of 40 mM calcein (Molecular Probes), 25 mM KCl, and 10 mM KOAc, pH 5.0. After 10 freeze-thaw cycles, the lipid suspension was extruded through two 0.1 μm pore diameter Nucleopore filters. Non-entrapped dye was removed by passage over a Sephadex G10 column (Amersham Biosciences). Lipid concentration was measured using the ammonium ferrothiocyanate method (Stewart, Anal. Biochem. 104:10-14, 1980).
For pore assays, recombinant truncated Bcl-2 family protein or mutant protein (Bcl-xL(ΔC)) (500 nM) was added to large unilamellar vesicles (60 μM lipid concentration) in 100 mM KCl, 10 mM KOAc, pH 5.0, and fluorescence measured (490 nm excitation, 520 nm emission) with a Fluoromax-3 spectrophotometer. Peptides of the BH3 domain were incubated with the Bcl-xL(ΔC) 5 min prior to mixing with liposomes. AA1 was added to liposomes 1 min before adding the Bcl-xL(ΔC) protein. Samples for kinetic assays were analyzed in a thermostatted cuvette at 37° C. with constant stirring. Dose responses were measured in black quartz microplates (Hellma) at room temperature. Calcein release was expressed as percentage of maximum release with detergent lysis (0.1% Triton X-100).

[1] = tested on: TAMH cells over-expressing Bcl-xL WT; assay: STS and antimycin toxicity, Alamar Blue viability; format: cell-based, murine; conditions: 24 h treatment
Procedure: (§3) TAMH cells were transfected with DNA encoding each of the mutant Bcl-xL proteins by lipofection (See Example 1 for method). For analysis of Bcl-xL expression, 20 μg of cell protein was separated by 20% SDS-PAGE and transferred to nitrocellulose membranes. Immunodetection of Bcl-xL was carried out using rabbit anti-Bcl-xL antibody and Protein A/horseradish peroxidase conjugate, followed by chemiluminescent detection. Cells were grown to about 80% confluence in 96-well plates followed by addition of 100 μl of 2×AA1 or staurosporine (STS) solution in complete medium. STS is a natural product originally isolated from the bacterium Streptomyces and found to be capable of inducing apoptosis in certain cells and which induction of apoptosis could be blocked by the expression of a Bcl-2 family protein. Cell viability was determined spectrophotometrically after 24 h treatment as the ratio of reduced and oxidized Alamar Blue (BIOSOURCE) at 570 nm and 600 nm, respectively. All results were normalized against DMSO controls. LD50 values were calculated by non-linear regression analysis using Prism software (Graphpad).

[2] = tested on: TAMH cells over-expressing Bcl-xL A142L; assay: STS and antimycin toxicity, Alamar Blue viability; format: cell-based, murine; conditions: for LD50: 24 h treatment
Procedure: as §3

[3] = tested on: TAMH cells over-expressing Bcl-xL E92L; assay: STS and antimycin toxicity, Alamar Blue viability; format: cell-based, murine; conditions: 24 h treatment
Procedure: as §3

[4] = tested on: TAMH cells over-expressing Bcl-xL F97W; assay: STS and antimycin toxicity, Alamar Blue viability; format: cell-based, murine; conditions: 24 h treatment
Procedure: as §3

[5] = tested on: TAMH cells over-expressing Bcl-xL F146L; assay: STS and antimycin toxicity, Alamar Blue viability; format: cell-based, murine; conditions: for LD50: 24 h treatment
Procedure: as §3

[6] = tested on: TAMH vector-only control cells; assay: STS toxicity, Alamar Blue viability; format: cell-based, murine; conditions: 24 h treatment
Procedure: as §3

[7] = tested on: RPMI-8226 human myeloma cells; assay: RPMI-8226 myeloma tumor xenografts
Procedure: Six to nine-week old Nod/Les2 Scid/J mice were inoculated with 3×10^7 RPMI-8226 cells by interscapular subcutaneous injection. Mice were maintained under specific pathogen-free conditions. Palpable tumor nodules were measured in two dimensions with calipers and tumor volumes calculated in mm^3 as (length×width^2)/2. Blood samples were collected by retro-orbital bleed for human light chain measurements by ELISA with lambda-specific antibody and horseradish peroxidase detection (BD Biosciences). Animals were sacrificed by halothane inhalation, and histologic examination of tumors and internal organs was performed. All experiments were approved by the Fred Hutchinson Cancer Research Center Institutional Animal Care and Use Committee.
(§4) 2-OMe antimycin A1 was synthesized from antimycin A1 (Sigma) and dissolved in phosphate-buffered saline with 20% Cremaphor, 25% ethanol (3 mg/ml) for parenteral administration by tail vein injection in a total volume of 100 μl. Control mice received injections of Cremaphor/ethanol vehicle.
Tissues were fixed in 10% buffered formalin, embedded in paraffin, sectioned and stained with hematoxylin and eosin. TUNEL staining was performed using 0.3 units/ml terminal deoxynucleotidyl transferase and biotinylated dATP with development by avidin-biotin peroxidase method. Bcl-xL immunohistochemistry was performed using anti-Bcl-xL antibody (BD Biosciences) followed by biotinylated secondary antibody and peroxidase-labeled ABC reagent (Vector, Burlingame Calif.).
(§5) To determine whether 2-OMeAA1 has anti-tumor activity in vivo, a total of 12 NOD/SCID mice in three experiments were inoculated with 3×10^7 RPMI-8226 human myeloma cells by interscapular subcutaneous injection. […] In total, six mice received three intravenous doses of 10 mg/kg 2-OMeAA1 on alternate days starting on day 6. Six control mice received injections of Cremaphor/ethanol vehicle without drug.

RPMI-8226 cells [8] = assay: Combined cytotoxicity with standard anticancer agents; format: cell-based, human; conditions: suboptimal combinations, 24 h
Procedure: Concentrations of standard chemotherapeutic agents were adjusted to achieve <20% cell death as single agents over 24 h treatments. Cells treated with 20 μg/ml 2-OMe antimycin A1 and indicated concentrations of etoposide, melphalan or daunorubicin. Predicted viability at 24 h is derived from additive cytotoxicity of single agents (open symbols). Observed viability for combination (closed symbols). Each symbol represents separate experiment. Viabilities (PI-negative) are normalized to untreated cells.

[9] = LC/MS analyses of plasma after administration; format: in vivo, mice; conditions: preliminary LC/MS analyses
NOD/SCID mice = assay: In vivo toxicity, intravenous dosing
Procedure: as §4, §5

RPMI-8226 cells [10] = assay: GI50 assay, MTT cell proliferation; format: cell-based, human
Procedure: RPMI-8226 cells were grown in 96 well plates for 24 h prior to addition of 2-methoxy antimycins. Antimycin stocks in dimethyl sulfoxide (DMSO) were serially diluted in RPMI. Cells were incubated for 48 h with compounds at final compound concentrations ranging from 10^−4 to 10^−8 M. MTT cell proliferation assays were performed in quadruplicate and percent growth inhibitions were calculated as (A570 (control cells)-A570 (treated cells))/A570 (control cells). GI50 was extrapolated from semi-log plots of the dose response for each compound. […] After 72 h drug exposures, 1 μCi/ml [^3H]-thymidine was added to wells. Cells were incubated for an additional 24 h, and then transferred to GF/C filter plates (Packard) using a plate washer. Filters were dried, added to scintillant, and counted in a TopCount® scintillation counter (Packard). Drug response is expressed as the percentage of vehicle-treated controls, and each value shown is the average of three determinations.

CCCCCC[C@H]1C(=O)O[C@H](C)[C@H](NC(=O)c2cccc(NC=O)c2O)C(=O)O[C@@H](C)[C@@H]1OC(=O)CC(C)C [AA1, antimycin A1]
fold decrease in AA1 affinity (Bcl-xL(ΔC) F146L): ~10 fold
fold increase in Kd of AA1 binding compared with Bcl-xL wt(ΔC) (Bcl-xL(ΔC) A142L): 20 fold
fold increase in Kd of AA1 binding compared with Bcl-xL wt(ΔC) (Bcl-xL(ΔC) F97W): 8 fold
effect on Bcl-xL pore-forming activity (FIG. 3A) (Bcl-xL(ΔC) WT): inhibited
LD50 [1]: 0.47 ± 0.07 µM
LD50 ([1]; listed as antimycin A1): 0.47 µM
sensitivity of mutant cells to antimycin A1 [2]: completely insensitive
LD50 [2]: >10 µM
LD50 [3]: 1.72 ± 0.34^2 μM
LD50 ([3]; listed as antimycin A1): 1.72 ± 0.3 µM
LD50 [4]: 5.12 ± 0.94^2 μM
LD50 ([4]; listed as antimycin A1): 5.12 ± 0.9 µM
sensitivity of mutant cells to antimycin A1 [5]: completely insensitive
LD50 [5]: >10 µM

CN[C@@H]1C[C@H]2O[C@@](C)([C@@H]1OC)n1c3ccccc3c3c4c(c5c6ccccc6n2c5c31)C(=O)NC4 [STS, staurosporine]
LD50 [6]: 0.11 ± 0.01 µM
LD50 [1]: 0.58 ± 0.1 µM and 0.58 ± 0.14 µM
LD50 [2]: 0.49 ± 0.11 µM
LD50 [3]: 0.52 ± 0.12 µM
LD50 [4]: 0.34 ± 0.10 µM
LD50 [5]: 0.38 ± 0.04 µM

CCCCCC[C@H]1C(=O)O[C@H](C)[C@H](NC(=O)c2cccc(NC=O)c2OC)C(=O)O[C@@H](C)[C@@H]1OC(=O)CC(C)C [2-OMeAA1, 2-OMe antimycin A1]
adverse effects in treated mice ([7]; 10 mg/kg): No adverse effects
average reduction of serum levels of human light chain ([7]; 10 mg/kg i.v., after the third injection): 87%
mice with regression of tumor nodules, second round ([7]; 10 mg/kg on alternate days, days 26 to 31): six of six
apoptosis in tumor sections ([7]; 24 and 48 h after a single 10 mg/kg intravenous treatment): widespread apoptosis
mice with tumor regression during treatment ([7]; three i.v. doses of 10 mg/kg on alternate days from day 6): Five of six
combined killing with etoposide or melphalan (RPMI-8226 cells [8]): Supra-additive killing
reformation of antimycin A1 in plasma [9]: have not demonstrated reformation of antimycin A1
histologic examination of normal tissues (NOD/SCID mice; 10 mg/kg): No cellular injury or inflammation
LD50 dose (NOD/SCID mice; schedule of 3 intravenous doses on alternate days): 20 mg/kg
mice survived without apparent toxicity (NOD/SCID mice; three intravenous doses at 10 mg/kg on alternate days): 6/6
effect on Bcl-xL pore-forming activity (FIG. 3A) (Bcl-xL(ΔC) WT): inhibited

2-OMe antimycin A5
activity (GI50) relative to 2-OMe antimycin A1, A2 and A3 (RPMI-8226 cells [10]): approximately ⅓
